Results from the NIST ThermoML archive (doi:10.1021/acs.jced.5b00658).
Numbers after ± are expanded uncertainties.

What was measured:
[1] = Molar enthalpy of transition or fusion; details: Crystal; DSC
[2] = for viscosity / mass density: 101.33 kPa; for mass density: Vibrating tube method; for Normal melting temperature: Crystal, DTA; for Glass transition temperature: DSC
[3] = 278.15 K, Liquid, Concentric cylinders viscometry
[4] = 288.15 K, Liquid, Concentric cylinders viscometry
[5] = 293.15 K, Liquid, Concentric cylinders viscometry
[6] = 298.15 K, Liquid, Concentric cylinders viscometry
[7] = 303.15 K, Liquid, Concentric cylinders viscometry
[8] = 313.15 K, Liquid, Concentric cylinders viscometry
[9] = 323.15 K, Liquid, Concentric cylinders viscometry
[10] = 333.15 K, Liquid, Concentric cylinders viscometry
[11] = 278.2 K, Liquid, Concentric cylinders viscometry
[12] = 308.15 K, Liquid, Concentric cylinders viscometry
[13] = 318.15 K, Liquid, Concentric cylinders viscometry
[14] = 328.15 K, Liquid, Concentric cylinders viscometry
[15] = 338.15 K, Liquid, Concentric cylinders viscometry

Row | Structure (SMILES) | Molar enthalpy of transition or fusion [1] | viscosity [2, 3] | mass density ([2]; 283.15 K, Liquid) | viscosity [2, 4] | mass density ([2]; 288.15 K, Liquid) | viscosity [2, 5] | mass density ([2]; 293.15 K, Liquid) | viscosity [2, 6] | mass density ([2]; 298.15 K, Liquid) | viscosity [2, 7] | mass density ([2]; 303.15 K, Liquid) | mass density ([2]; 308.15 K, Liquid) | viscosity [2, 8] | mass density ([2]; 313.15 K, Liquid) | viscosity [2, 9] | viscosity [2, 10] | Normal melting temperature [2] | Glass transition temperature [2] | also measured
1 | CC(C)CCCn1cc[n+](C)c1.O=S(=O)([N-]S(=O)(=O)C(F)(F)F)C(F)(F)F | 0.0239 kcal/mol | 237 ± 6 mPa·s | 1385.9 ± 1 kg/m3 | 137 ± 4 mPa·s | 1381.3 ± 1 kg/m3 | 107 ± 4 mPa·s | 1377 ± 1 kg/m3 | 85 ± 4 mPa·s | 1372.4 ± 1 kg/m3 | 69 ± 4 mPa·s | 1367.9 ± 1 kg/m3 | 1363.3 ± 1 kg/m3 | 45 ± 4 mPa·s | 1358.5 ± 1 kg/m3 | 32 ± 4 mPa·s | 23 ± 4 mPa·s | 3.2 ± 3.4 °C | -81 ± 2.9 °C | 
2 | CCCn1cc[n+](C)c1.O=S(=O)([N-]S(=O)(=O)C(F)(F)F)C(F)(F)F |  |  | 1490.2 ± 1 kg/m3 | 64 ± 4 mPa·s | 1485.2 ± 1 kg/m3 |  | 1480.6 ± 1 kg/m3 | 43 ± 4 mPa·s | 1475.6 ± 1 kg/m3 |  | 1470.8 ± 1 kg/m3 | 1465.8 ± 1 kg/m3 |  | 1460.6 ± 1 kg/m3 |  |  |  |  | viscosity [2, 11]: 103 ± 4 mPa·s; viscosity [2, 12]: 30 ± 4 mPa·s; viscosity [2, 13]: 22 ± 4 mPa·s; viscosity [2, 14]: 17 ± 4 mPa·s; viscosity [2, 15]: 13 ± 4 mPa·s
3 | CCCCCn1cc[n+](C)c1.O=S(=O)([N-]S(=O)(=O)C(F)(F)F)C(F)(F)F |  |  | 1417.5 ± 1 kg/m3 |  | 1412.9 ± 1 kg/m3 |  | 1408.4 ± 1 kg/m3 |  | 1403.6 ± 1 kg/m3 |  | 1399 ± 1 kg/m3 | 1393.9 ± 1 kg/m3 |  | 1389.3 ± 1 kg/m3 |  |  |  |  | 
4 | CC(C)CCn1cc[n+](C)c1.O=S(=O)([N-]S(=O)(=O)C(F)(F)F)C(F)(F)F | 0.0239 kcal/mol | 195 ± 5 mPa·s | 1417.5 ± 1 kg/m3 | 112 ± 4 mPa·s | 1412.7 ± 1 kg/m3 | 86 ± 4 mPa·s | 1408.1 ± 1 kg/m3 | 69 ± 4 mPa·s | 1403.3 ± 1 kg/m3 | 56 ± 4 mPa·s | 1398.5 ± 1 kg/m3 | 1393.7 ± 1 kg/m3 | 38 ± 4 mPa·s | 1388.7 ± 1 kg/m3 | 27 ± 4 mPa·s | 20 ± 4 mPa·s | -0.0 ± 3.4 °C | -83.7 ± 2.9 °C | 
5 | CCCCCC[n+]1ccn(C)c1.O=S(=O)([N-]S(=O)(=O)C(F)(F)F)C(F)(F)F | 1.65 ± 1.53 kcal/mol |  | 1386.1 ± 1 kg/m3 |  | 1381.5 ± 1 kg/m3 |  | 1377.2 ± 1 kg/m3 |  | 1372.7 ± 1 kg/m3 |  | 1368.3 ± 1 kg/m3 | 1363.6 ± 1 kg/m3 |  | 1358.8 ± 1 kg/m3 |  |  | -11.2 ± 3.4 °C | -85.7 ± 2.9 °C | 
6 | CC(C)[n+]1ccn(C)c1.O=S(=O)([N-]S(=O)(=O)C(F)(F)F)C(F)(F)F | 5.71 ± 0.406 kcal/mol | 122 ± 4 mPa·s | 1492.2 ± 1 kg/m3 | 75 ± 4 mPa·s | 1487.2 ± 1 kg/m3 | 59 ± 4 mPa·s | 1482.5 ± 1 kg/m3 | 48 ± 4 mPa·s | 1477.6 ± 1 kg/m3 | 39 ± 4 mPa·s | 1472.8 ± 1 kg/m3 | 1467.8 ± 1 kg/m3 | 28 ± 4 mPa·s | 1462.6 ± 1 kg/m3 | 21 ± 4 mPa·s | 16 ± 4 mPa·s | 9.0 ± 3.4 °C | -83 ± 2.9 °C | 
7 | CCCCCCCn1cc[n+](C)c1.O=S(=O)([N-]S(=O)(=O)C(F)(F)F)C(F)(F)F | 0.0956 ± 0.382 kcal/mol |  | 1358.4 ± 1 kg/m3 | 132 ± 4 mPa·s | 1354.1 ± 1 kg/m3 |  | 1349.8 ± 1 kg/m3 | 82 ± 4 mPa·s | 1345.4 ± 1 kg/m3 |  | 1341 ± 1 kg/m3 | 1336.4 ± 1 kg/m3 |  | 1331.6 ± 1 kg/m3 |  |  | -0.9 ± 3.4 °C | -85.4 ± 2.9 °C | viscosity [2, 11]: 234 ± 6 mPa·s; viscosity [2, 12]: 54 ± 4 mPa·s; viscosity [2, 13]: 37 ± 4 mPa·s; viscosity [2, 14]: 27 ± 4 mPa·s; viscosity [2, 15]: 20 ± 4 mPa·s
8 | CC(C)CCCCn1cc[n+](C)c1.O=S(=O)([N-]S(=O)(=O)C(F)(F)F)C(F)(F)F | 0.12 ± 0.382 kcal/mol |  | 1357.5 ± 1 kg/m3 |  | 1353 ± 1 kg/m3 |  | 1348.7 ± 1 kg/m3 |  | 1344.2 ± 1 kg/m3 |  | 1339.8 ± 1 kg/m3 | 1335.2 ± 1 kg/m3 |  | 1330.6 ± 1 kg/m3 |  |  | 11.2 ± 3.4 °C | -81.3 ± 2.9 °C | viscosity ([2]; 278.15 K, Metastable liquid, Concentric cylinders viscometry): 306 ± 8 mPa·s; viscosity ([2]; 288.15 K, Concentric cylinders viscometry, Liquid): 164 ± 5 mPa·s; viscosity ([2]; 293.15 K, Concentric cylinders viscometry, Liquid): 124 ± 4 mPa·s; viscosity ([2]; 298.15 K, Concentric cylinders viscometry, Liquid): 96 ± 4 mPa·s; viscosity ([2]; 303.15 K, Concentric cylinders viscometry, Liquid): 76 ± 4 mPa·s; viscosity ([2]; 313.15 K, Concentric cylinders viscometry, Liquid): 50 ± 4 mPa·s; viscosity ([2]; 323.15 K, Concentric cylinders viscometry, Liquid): 35 ± 4 mPa·s; viscosity ([2]; 333.15 K, Concentric cylinders viscometry, Liquid): 25 ± 4 mPa·s
9 | CC(C)Cn1cc[n+](C)c1.O=S(=O)([N-]S(=O)(=O)C(F)(F)F)C(F)(F)F | 1.63 ± 0.382 kcal/mol |  | 1450.3 ± 1 kg/m3 |  | 1445.6 ± 1 kg/m3 |  | 1441.1 ± 1 kg/m3 |  | 1436.3 ± 1 kg/m3 |  | 1431.6 ± 1 kg/m3 | 1426.6 ± 1 kg/m3 |  | 1421.9 ± 1 kg/m3 |  |  | -16.2 ± 3.4 °C | -81.2 ± 2.9 °C | viscosity ([2]; 278.15 K, Liquid): 244 mPa·s; viscosity ([2]; 288.15 K, Liquid): 132 mPa·s; viscosity ([2]; 293.15 K, Liquid): 103 mPa·s; viscosity ([2]; 298.15 K, Liquid): 79 ± 32 mPa·s; viscosity ([2]; 303.15 K, Liquid): 61 ± 11 mPa·s; viscosity ([2]; 313.15 K, Liquid): 40 ± 8 mPa·s; viscosity ([2]; 323.15 K, Liquid): 28 ± 7 mPa·s; viscosity ([2]; 333.15 K, Liquid): 20 ± 6 mPa·s
10 | CCCC[n+]1ccn(C)c1.O=S(=O)([N-]S(=O)(=O)C(F)(F)F)C(F)(F)F | 5.76 ± 0.311 kcal/mol |  | 1451.2 ± 1 kg/m3 |  | 1446.5 ± 1 kg/m3 |  | 1441.9 ± 1 kg/m3 |  | 1436.9 ± 1 kg/m3 |  | 1432.1 ± 1 kg/m3 | 1427.1 ± 1 kg/m3 |  | 1422.6 ± 1 kg/m3 |  |  | -4.6 ± 3 °C | -88.9 ± 2.9 °C | 
